From PubChem BioAssay (NCI) come the findings set out here.

Molecules are shown by their SMILES.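 Dose response: 5 concentrations. Exposure: 48 h. Format: 96-well plates. Endpoint: linear interpolation; highest concentration if not reached. GI50: concentration for 50% inhibition of growth. Definition used: TGI = concentration required for complete inhibition of growth.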

What all share (assay): NCI tumour cell line growth inhibition, 48 h
Test [1] deals with M19-MEL melanoma.
The subject of test [2] is HCT-15 colon.
The test system of test [3] is NCI-H23 lung.
Test [4] has as its system SNB-78 CNS.
The subject of test [5] is LXFL 529 NSCLC.
For test [6], the system named is KM20L2 colon.
Test [7] deals with DMS 273 small cell lung.
In test [8] the test system is DLD-1 colon.
Test [9] has as its system HL-60(TB) leukemia.

On to `CCOC(=O)c1ccc(N2C(=O)Cc3ccccc3C2=O)cc1`, for which the TGI in test [1], in test [2], in test [3], in [4], in [5] and in [6] was more than 100 µM throughout. In test [7], the TGI was more than 100 µM.

Turning to `O=C1C(=O)N(c2nccs2)C(=O)C(=O)C1c1nc2ccccc2s1`, the TGI in test [1], in [8], in test [2], in test [3], in test [4] and in test [5] was more than 100 µM throughout. Moreover, the TGI in test [6] and in test [7] was more than 100 µM throughout.

Regarding `CCN(CC)c1ccc(N=C2C=C(Cl)C(=O)c3ncccc32)c(C)c1`, the TGI turned out to be 68.5 µM in [1]; 17 µM in test [8]; 20.8 µM in [2]; 11.3 µM in [3]; 43.4 µM in test [4]; 4.72 µM in test [9]. Further, the TGI was 26.9 µM in [6] and 16.8 µM in [7].

Regarding `COc1nc2c(nc(N)n2C2OCC(O)C(O)C2O)c(=O)n1C` (stereo not drawn), the TGI in [1], in test [8], in [3], in test [4], in [5] and in test [9] was more than 100 µM each time. Also, the TGI in [6] was more than 100 µM.

With `O=C(Nc1ccc(Br)cc1)C(=O)C(C(=O)c1ccccc1F)C1OC(=O)c2ccccc21` (stereo not drawn), the TGI in test [1] is 42.7 µM; in [8], 80.1 µM; in test [2] it was more than 100 µM; in test [3], 43.6 µM; in [4], 72.6 µM; in test [5], 89.5 µM. Also, the TGI in [9] was 75.6 µM; in [6] it was more than 100 µM; in [7] it was more than 100 µM.

`CC1(C(=O)O)CCOc2ccccc21` (stereo not drawn): the TGI in [1], in test [8], in [2], in test [3], in test [4] and in [5] was more than 100 µM throughout. The TGI in [9] and in [6] was more than 100 µM in each case.

Take `COc1cc(/C=C\c2ccc(Br)cc2)cc(OC)c1OC`: the GI50 in [1] is 0.363 µM. The TGI in [1] is more than 100 µM; in test [8], more than 100 µM; in test [2] it was 34.7 µM; in [5], more than 100 µM; in [9] it was 0.0032 µM; in test [7] it was 13.8 µM.

`Cc1c(-c2nnc(-c3ccccc3)o2)c(=O)n(-c2ccccc2)n1C`: the TGI in test [1], in [8], in test [2], in test [3], in test [4] and in [5] was more than 100 µM throughout. For the same compound, the TGI in test [9], in test [6] and in test [7] was more than 100 µM throughout.

As to `COC12CCC(C(C(=O)c3ccccc3)=C1C(=O)c1ccccc1)C(O)C2` (stereo not drawn), the TGI in test [1], in test [8], in test [2], in test [3], in test [4] and in test [5] was more than 100 µM each time. The TGI in test [9] and in test [7] was more than 100 µM in each case.

`O=C(Nc1nc2ccc([N+](=O)[O-])cc2s1)C(=O)C(C(=O)c1ccncc1)C1OC(=O)c2ccccc21` (stereo not drawn): the TGI in test [1], in test [8], in test [2], in test [3], in [4] and in [5] was more than 100 µM throughout. The TGI in test [9], in test [6] and in test [7] was more than 100 µM throughout.

On to `CS/C(c1ccccc1)=[N+](\[O-])Cc1ccccc1`, for which the TGI in [1] is more than 100 µM; in [8], more than 100 µM; in test [2], 32.9 µM; in test [3] it was more than 100 µM; in test [4], more than 100 µM; in test [5], more than 100 µM. Moreover, the TGI in test [9] and in [6] was more than 100 µM each time.

For the compound `CC(NC(=O)C(=O)N/N=C1\C[C@@H](c2ccccc2)Nc2ccccc21)c1ccccc1` (stereo partly drawn), the TGI in test [1], in test [8], in test [3], in test [4], in [5] and in test [9] was more than 100 µM each time. Moreover, the TGI in test [6] and in test [7] was more than 100 µM each time.

Turning to `O=C(N/C(=C\c1ccc(/C=C(\NC(=O)c2ccccc2)c2nc3ccccc3s2)cc1)c1nc2ccccc2s1)c1ccccc1`, the TGI in test [1] was 15.2 µM; in test [8], 12 µM; in test [2], 16 µM; in test [3] it was 29.9 µM; in test [4], 62.3 µM; in [5] it was 10.9 µM. Besides, the figures for the TGI in test [9], in test [6] and in test [7] were 5.71 µM, 11.2 µM and 10.8 µM, respectively.

Take `O=C(O)c1ccccc1N=Nc1ccc2oc(=O)c(C(=O)Nc3ccccc3)cc2c1`: the TGI in [1] is more than 100 µM; in [8], more than 100 µM; in test [2], more than 100 µM; in test [3], more than 100 µM; in test [9] it was 66.9 µM; in test [6], 83.9 µM. In addition, in [7], the TGI was more than 100 µM.

For `CCOC(=O)C(C)(C)Oc1ccc2c(-c3ccc(Cl)cc3)c(-c3ccc(Cl)cc3)c(=O)oc2c1`, the TGI in test [1], in test [8], in test [2], in test [3], in test [5] and in test [9] was more than 100 µM in each case. The TGI in test [6] and in [7] was more than 100 µM in each case.

As for `OCC(O)C(O)C(O)c1nn(-c2ccccc2)c2nc3cc(Cl)c(Cl)cc3nc12` (stereo not drawn), the TGI in test [1] is more than 100 µM; in [8], more than 100 µM; in [3], more than 100 µM; in test [4], more than 100 µM; in test [5] it was more than 100 µM; in test [9], 91.2 µM. For the same compound, the TGI in test [6] and in test [7] was more than 100 µM throughout.
